From US9983195B2, “Engineered three-dimensional breast tissue, adipose tissue, and tumor disease model” (ORGANOVO, INC., priority 2014, dated 2018) come the findings set out here.

What all share (type): cell-based, human
The test system of test [1] is bioprinted breast cancer constructs (MCF7/HUVEC cancer node surrounded by NHMF, HUVEC, SPA stroma). As to the kind of experiment: Construct viability after drug treatment by alamarBlue assay. To be noted: 10 μM compound for 3 days, followed by 100 μM compound for 24 hours; FIG. 14. In general terms: The colour change of resazurin is a common sign of viable cells or microbes.
Text: Bioprinted breast cancer constructs were generated in which a cancer cell node, composed of MCF7 breast cancer cells and human umbilical vein endothelial (HUVEC) cells, is surrounded on all sides by a stromal compartment composed of normal human mammary fibroblasts (NHMF), HUVEC cells, and subcutaneous preadipocytes (SPA). Bio-inks were produced by combining cells with a reversibly cross-linkable, alginate-containing hydrogel (Novogel® 3.0 System; Organovo, Calif.). The stromal compartment of the constructs was comprised of 65% NHMF, 25% HUVEC, and 10% SPA (partially pre-differentiated). The cancer compartment of the constructs was comprised of 75% MCF7, 25% HUVEC. For each compartment, cells were mixed together at the indicated ratio and resuspended in Novogel® 3.0 at a concentration of 150 million cells/ml. Constructs were printed as 3 layered structures with a dimension of 3 mm×3 mm×0.75 mm. Immediately following bioprinting, constructs were stabilized via crosslinking. After 2 minutes, the calcium crosslinking solution was aspirated and replaced with culture media. After 2 days in culture, constructs were treated overnight with enzyme dissolved in culture media to remove the Novogel® 3.0. […] Constructs were assessed for metabolic activity by alamarBlue assay (Life Technologies, Carlsbad, Calif.) or CellTiter Glo assay (Promega, Madison, Wis.). […]

In test [2] the test system is bioprinted breast cancer tumor models (stromal and cancer compartments). Put plainly: Apoptosis by TUNEL staining with CK8 and TE7 markers in bioprinted breast cancer tumor models. The conditions noted are these: 100 μM cisplatin for 4 days; FIG. 22. An excerpt: (§1) The breast cancer tumor models included a nodule of human breast cancer cells surrounded by a physiologically-relevant stromal layer, which included human adipocytes differentiated from human mesenchymal stem cells, human mammary fibroblasts, and human endothelial cells. The adipocytes were derived from mesenchymal stem cells which were isolated an exposed to an adipocyte differentiation signal prior to preparation of the bio-ink and bioprinting.
Referring to FIG. 22, bioprinted tissues were treated with vehicle (A-C) or 100 μM cisplatin (D-F) for 4 days. The first (A and D) and second (B and E) columns depict tissues assessed for apoptosis by TUNEL staining (green) and markers for cancer cells (CK8, red). The last (C and F) column depicts tissues assessed for apoptosis by TUNEL staining (green) and markers for fibroblasts (TE7, red).

Test [3] has as its system breast cancer cells in two-dimensional culture and bioprinted breast cancer tumor models. Put plainly: Viability by ATP luciferase assay, two-dimensional breast cancer cell culture versus bioprinted breast cancer tumor models. To be noted: 10 μM tamoxifen for 48 hours, FIG. 20.
Text: as §1
The breast cancer tumor models were exposed to chemotherapy compounds in order to access drug response. Referring to FIG. 20, breast cancer cells grown in two-dimensional cell culture (A) and the bioprinted breast cancer tumor models (B) were treated with media alone, DMSO, or 10 μM tamoxifen for 48 hours and assessed for viability by ATP luciferase assay. For each graph, * indicates p<0.05 for treatment compared to control.

With `CC(=O)O[C@H]1C(=O)[C@@]2(C)[C@H]([C@H](OC(=O)c3ccccc3)[C@]3(O)C[C@H](OC(=O)[C@H](O)[C@@H](NC(=O)c4ccccc4)c4ccccc4)C(C)=C1C3(C)C)[C@]1(OC(C)=O)CO[C@@H]1C[C@@H]2O` [paclitaxel], the “construct viability (alamarBlue) relative to media or vehicle controls” value in test [1] is recorded as “decreased construct viability”.

Take `N.N.[Cl][Pt][Cl]` [Cisplatin, cisplatin]: the “construct viability (alamarBlue) relative to media or vehicle controls” value in test [1] is listed as “decreased construct viability”. Also, the “apoptosis (TUNEL) in stromal versus cancer compartment” value in test [2] was “induces greater apoptosis in the stromal compartment of bioprinted tissues than in the cancer compartment”. `CC/C(=C(\c1ccccc1)c1ccc(OCCN(C)C)cc1)c1ccccc1` [tamoxifen]: in test [3], the “susceptibility to tamoxifen-induced toxicity, two-dimensional cells versus three-dimensional bioprinted constructs” value is recorded as “Isolated two-dimensional cancer cells were more susceptible to tamoxifen-induced toxicity than cells incorporated into three-dimensional bioprinted constructs”.
